According to ChEMBL document CHEMBL1128846, “Synthesis and pharmacological activity of conformationally restricted, acetylenic retinoid analogs” (Bioorg Med Chem Lett, 1995):

Tests used:
Mus musculus = test: In vivo inhibition of TPA-induced ornithine decarboxylase (ODC) activity in hairless mouse skin; format: functional
[1] = target: T1, Retinoic acid receptor beta (Homo sapiens, UniProt P10826); test: Transcriptional activation of retinoic acid receptor RAR beta; not active
T1 sequence (P10826 whole entry): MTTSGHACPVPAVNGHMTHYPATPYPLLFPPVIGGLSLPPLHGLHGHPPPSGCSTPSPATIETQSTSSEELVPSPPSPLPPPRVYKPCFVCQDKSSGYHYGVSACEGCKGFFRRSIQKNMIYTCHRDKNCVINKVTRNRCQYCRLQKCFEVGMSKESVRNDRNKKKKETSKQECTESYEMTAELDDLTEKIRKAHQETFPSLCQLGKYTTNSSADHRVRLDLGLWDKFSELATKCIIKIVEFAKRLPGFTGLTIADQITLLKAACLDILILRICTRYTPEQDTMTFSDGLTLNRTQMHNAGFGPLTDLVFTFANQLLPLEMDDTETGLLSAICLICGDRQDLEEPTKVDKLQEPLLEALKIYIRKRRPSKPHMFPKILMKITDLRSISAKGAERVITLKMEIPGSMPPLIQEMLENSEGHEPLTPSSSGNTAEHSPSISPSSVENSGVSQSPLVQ

[2] = target: T2, Retinoic acid receptor alpha (Homo sapiens, UniProt P10276); test: Transcriptional activation of retinoic acid receptor RAR alpha; not active
T2 sequence (P10276 whole entry): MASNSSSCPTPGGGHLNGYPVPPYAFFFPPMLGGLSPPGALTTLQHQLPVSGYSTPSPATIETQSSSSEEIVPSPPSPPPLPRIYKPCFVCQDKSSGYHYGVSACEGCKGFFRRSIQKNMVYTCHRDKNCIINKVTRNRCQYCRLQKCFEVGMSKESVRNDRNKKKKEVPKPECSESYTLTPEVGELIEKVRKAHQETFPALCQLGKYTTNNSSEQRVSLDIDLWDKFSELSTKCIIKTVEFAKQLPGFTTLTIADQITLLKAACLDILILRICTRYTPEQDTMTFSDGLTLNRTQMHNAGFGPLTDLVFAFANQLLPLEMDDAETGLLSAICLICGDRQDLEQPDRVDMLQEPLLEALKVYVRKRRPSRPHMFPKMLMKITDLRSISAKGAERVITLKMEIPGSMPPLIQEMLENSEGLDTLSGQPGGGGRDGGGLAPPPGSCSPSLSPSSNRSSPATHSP

[3] = target: T3, Retinoic acid receptor gamma (Homo sapiens, UniProt P13631); test: Transcriptional activation of retinoic acid receptor RAR gamma; not active
T3 sequence (P13631 whole entry): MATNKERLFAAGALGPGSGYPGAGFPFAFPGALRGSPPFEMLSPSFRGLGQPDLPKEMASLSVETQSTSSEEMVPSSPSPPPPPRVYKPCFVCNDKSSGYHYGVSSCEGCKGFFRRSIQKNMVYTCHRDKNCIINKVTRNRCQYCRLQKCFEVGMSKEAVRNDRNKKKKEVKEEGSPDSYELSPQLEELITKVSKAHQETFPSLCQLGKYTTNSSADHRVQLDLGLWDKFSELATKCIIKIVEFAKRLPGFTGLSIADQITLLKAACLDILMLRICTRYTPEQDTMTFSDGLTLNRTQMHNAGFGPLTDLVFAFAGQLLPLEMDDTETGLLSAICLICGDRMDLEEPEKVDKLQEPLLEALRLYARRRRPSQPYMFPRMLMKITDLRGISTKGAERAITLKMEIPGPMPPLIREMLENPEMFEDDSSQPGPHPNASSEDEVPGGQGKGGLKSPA

[4] = target: T4, Retinoic acid receptor RXR-alpha (Homo sapiens, UniProt P19793); test: Transcriptional activation of retinoid X receptor RXR alpha; not active
T4 sequence (P19793 whole entry): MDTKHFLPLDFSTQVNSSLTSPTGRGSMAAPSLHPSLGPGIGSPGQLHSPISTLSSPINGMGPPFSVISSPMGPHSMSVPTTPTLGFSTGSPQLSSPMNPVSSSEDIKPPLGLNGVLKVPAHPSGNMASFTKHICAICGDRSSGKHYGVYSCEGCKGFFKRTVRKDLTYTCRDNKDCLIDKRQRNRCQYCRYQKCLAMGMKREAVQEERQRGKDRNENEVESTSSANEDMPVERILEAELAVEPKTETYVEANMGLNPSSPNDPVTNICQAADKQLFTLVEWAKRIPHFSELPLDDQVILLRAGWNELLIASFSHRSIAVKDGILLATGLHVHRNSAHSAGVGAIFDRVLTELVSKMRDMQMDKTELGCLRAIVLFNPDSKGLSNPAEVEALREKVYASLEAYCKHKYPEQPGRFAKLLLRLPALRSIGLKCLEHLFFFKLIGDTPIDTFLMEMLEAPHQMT

[5] = target: T1, Retinoic acid receptor beta; test: (§1) Transcriptional activation of retinoic acid receptor RAR beta
[6] = target: T3, Retinoic acid receptor gamma; test: Transcriptional activation of retinoic acid receptor RAR gamma
[7] = target: T1, Retinoic acid receptor beta; test: as §1; remark: listed apart in the source
[8] = target: T2, Retinoic acid receptor alpha; test: Transcriptional activation of retinoic acid receptor RAR alpha

Structure (SMILES): CCOC(=O)c1ccc(C#C/C=C/C2=C(C)CCCC2(C)C)o1
- IC80 (Mus musculus): > 300 nmol

Structure (SMILES): CC1=C(/C=C/C#Cc2cccc(C(=O)O)c2)C(C)(C)CCC1
- IC80 (Mus musculus): 890 nmol
- EC50 [1]: > 10 µM
- EC50 [2]: > 10 µM
- EC50 [3]: > 10 µM
- EC50 [4]: > 10 µM

Structure (SMILES): CCOC(=O)c1ccccc1C#C/C=C/C1=C(C)CCCC1(C)C
- IC80 (Mus musculus): > 1000 nmol

Structure (SMILES): CC1=C(/C=C/C#Cc2ccc(C(=O)O)cn2)C(C)(C)CCC1
- IC80 (Mus musculus): 14.8 nmol
- EC50 [5]: > 0.005 µM
- EC50 [2]: > 10 µM
- EC50 [6]: > 0.015 µM

Structure (SMILES): C/C(=C\c1ccc(C(=O)O)cc1)c1ccc2c(c1)C(C)(C)CCC2(C)C
- EC50 [4]: 10 µM

Structure (SMILES): CC1=C(C#Cc2ccc3cc(C(=O)O)ccc3c2)C(C)(C)CCC1
- IC80 (Mus musculus): 215 nmol
- EC50 [5]: 0.355 µM
- EC50 [7]: 0.93 µM
- EC50 [2]: > 10 µM
- EC50 [4]: > 10 µM

Structure (SMILES): CC1=C(/C=C/C#Cc2ccccc2C(=O)O)C(C)(C)CCC1
- IC80 (Mus musculus): > 1000 nmol
- EC50 [1]: > 10 µM
- EC50 [2]: > 10 µM
- EC50 [3]: > 10 µM
- EC50 [4]: > 10 µM

Structure (SMILES): CCOC(=O)c1cccc(C#C/C=C/C2=C(C)CCCC2(C)C)c1
- IC80 (Mus musculus): > 1000 nmol

Structure (SMILES): CC1=C(/C=C/C#Cc2ccc(C(=O)O)cc2)C(C)(C)CCC1
- IC80 (Mus musculus): 0.46 nmol
- EC50 [5]: 0.002 µM
- EC50 [8]: 0.598 µM
- EC50 [6]: 0.01 µM
- EC50 [4]: 10 µM

Structure (SMILES): CCOC(=O)c1ccc2cc(C#CC3=C(C)CCCC3(C)C)ccc2c1
- IC80 (Mus musculus): 131 nmol

Structure (SMILES): CCOC(=O)c1ccc(C#C/C=C/C2=C(C)CCCC2(C)C)cc1
- IC80 (Mus musculus): 1.3 nmol

Structure (SMILES): CCOC(=O)c1ccc(C#C/C=C/C2=C(C)CCCC2(C)C)s1
- IC80 (Mus musculus): 30 nmol

Structure (SMILES): CCOC(=O)c1ccc(C#C/C=C/C2=C(C)CCCC2(C)C)nc1
- IC80 (Mus musculus): 5.3 nmol
